Patent US7491827B2, “Aryl sulfonamides useful as inhibitors of chemokine receptor activity” (Millennium Pharmaceuticals, Inc., priority 2003, dated 2009)
Where two headings read alike, the source gives them in different places.

Target: T1, cloned human CCR8 receptor stably expressed in L1.2 cells (Homo sapiens, UniProt P51685)
T1 construct: expressed in transfected cells
Experiment: whole cell binding screen: inhibition of biotinylated human I309 binding to CCR8 (FMAT 8100 HTS)
Settings: biotinylated human I-309, 10 point concentration response starting at 10 μM
In short: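 Ten-point dilutions, top 10 μM final, were tested for displacing biotin-I309 from hCCR8-transfected L1.2 cells in HEPES-buffered HBSS with BSA and sodium azide, mixing 0.5 h before FMAT 8100 detection. Signals converted to percent inhibition against untreated wells and a 100 nM excess unlabeled I309 control.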

[1] = L1.2/hCCR8 cells, read-out: Ki of compounds to inhibit I-309 binding to CCR8
[2] = Ki of compounds to inhibit I-309 binding to CCR8, L1.2/hCCR8 cells

T1 sequence (P51685 whole entry): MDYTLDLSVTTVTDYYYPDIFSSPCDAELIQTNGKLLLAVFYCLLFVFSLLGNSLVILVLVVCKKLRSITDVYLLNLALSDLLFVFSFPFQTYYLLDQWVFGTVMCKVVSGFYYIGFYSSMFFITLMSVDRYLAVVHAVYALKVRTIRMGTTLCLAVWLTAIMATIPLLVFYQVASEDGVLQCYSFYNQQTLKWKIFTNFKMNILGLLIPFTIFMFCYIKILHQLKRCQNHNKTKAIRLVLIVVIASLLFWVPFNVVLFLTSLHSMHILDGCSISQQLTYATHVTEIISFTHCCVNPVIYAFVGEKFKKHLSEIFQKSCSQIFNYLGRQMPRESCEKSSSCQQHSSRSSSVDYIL

Row | Ki [1] | SMILES | Ki [2]
1 | < 0.5 µM | Cc1ccccc1C(=O)Nc1ccc(S(=O)(=O)NC2CCN(C(=O)N3CCCC3)CC2)c2c1CCCC2 [Compound E-11, 2-Methyl-N-{4-[1-(pyrrolidine-1-carbonyl)-piperidin-4-ylsulfamoyl]-5,6,7,8-tetrahydro-naphthalen-1-yl}-benzamide] | 
2 |  | CCOC(=O)N1CCC(NS(=O)(=O)c2ccc(C(=O)NC3CCCCC3)c3ccccc23)CC1 [Compound F-3, 4-(4-Cyclohexylcarbamoyl-naphthalene-1-sulfonylamino)-piperidine-1-carboxylic acid ethyl ester] | < 0.5 µM
3 | < 1 µM | COc1ccc(NS(=O)(=O)c2ccc(NC(=O)c3cccc(OC)c3)c3ccccc23)cc1 [Compound B-5, 3-Methoxy-N-[4-(4-methoxy-phenylsulfamoyl)-naphthalen-1-yl]-benzamide] | 
4 | < 1 µM | Cc1ccccc1C(=O)NCc1ccc(S(=O)(=O)NC2CCCCC2)c2ccccc12 [Compound G-5, N-(4-Cyclohexylsulfamoyl-naphthalen-1-ylmethyl)-2-methyl-benzamide] | 
5 | < 0.5 µM | CC(C)NC(=O)N1CCC(NS(=O)(=O)c2ccc(NC(=O)c3ccccc3)c3ccccc23)CC1 [Compound C-2, 4-(4-Benzoylamino-naphthalene-1-sulfonylamino)-piperidine-1-carboxylic acid isopropyl amide] | 
6 | < 30 µM | Cc1ccccc1NC(=O)c1ccc(S(=O)(=O)NC2CCNCC2)c2ccccc12 [Compound F-5, 4-(Piperidin-4-ylsulfamoyl)-naphthalene-1-carboxylic acid o-tolylamide] | 
7 |  | CCCC(=O)N1CCC(NS(=O)(=O)c2ccc(NC(=O)C3CCC3)c3ccccc23)CC1 [Compound D-19, Cyclobutanecarboxylic acid [4-(1-butyryl-piperidin-4-ylsulfamoyl)-naphthalen-1-yl]-amide] | < 0.5 µM
8 | < 0.5 µM | CCOC(=O)N1CCC(NS(=O)(=O)c2ccc(CNCc3ccco3)c3ccccc23)CC1 [Compound G-13, 4-(4-{[(Furan-2-ylmethyl)-amino]-methyl}-naphthalene-1-sulfonylamino)-piperidine-1-carboxylic acid ethyl ester] | 
9 | < 30 µM | Cc1ccccc1C(=O)Nc1cc(S(=O)(=O)NC2CCN(C(=O)C(C)C)CC2)cc2c1CCCC2 [Compound H-53, N-[3-(1-Isobutyryl-piperidin-4-ylsulfamoyl)-5,6,7,8-tetrahydro-naphthalen-1-yl]-2-methyl-benzamide] | 
10 |  | CCC(=O)N1CCC(NS(=O)(=O)c2ccc(NC(=O)c3ccccc3C)c3ccccc23)CC1 [Compound C-50, 2-Methyl-N-[4-(1-propionyl-piperidin-4-ylsulfamoyl)-naphthalen-1-yl]-benzamide] | < 0.5 µM
11 | < 0.5 µM | CCNC(=O)N1CCC(NS(=O)(=O)c2ccc(C(=O)NC3CCCCC3)c3ccccc23)CC1 [Compound F-8, 4-(4-Cyclohexylcarbamoyl-naphthalene-1-sulfonylamino)-piperidine-1-carboxylic acid ethylamide] | 
12 | < 0.5 µM | CCOC(=O)N1C[C@H](C)C(NS(=O)(=O)c2ccc(NC(=O)c3ccccc3C)c3ccccc23)[C@@H](C)C1 (racemic) [Compound C-67, (±)-(cistrans)-3,5-Dimethyl-4-[4-(2-methyl-benzoylamino)-naphthalene-1-sulfonylamino]-piperidine-1-carboxylic acid ethyl ester] | 
13 | < 30 µM | CCOC(=O)N1CC[C@H](NS(=O)(=O)c2ccc(N)c3ccccc23)[C@H](C)C1 (racemic) [Compound D-2, (±)-(cis)4-(4-amino-naphthalene-1-sulfonylamino)-3-methyl-piperidine-1-carboxylic acid ethyl ester] | 
14 | < 0.5 µM | CCOC(=O)N1CCC(NS(=O)(=O)c2cccc3c(NC(=O)C4CCCCC4)cccc23)CC1 [Compound H-7, 4-[5-(Cyclohexanecarbonyl-amino)-naphthalene-1-sulfonylamino]-piperidine-1-carboxylic acid ethyl ester] | 
15 | < 1 µM | CCOC(=O)N1CCC(NS(=O)(=O)c2cccc3c(NC(=O)c4ccc(C)cc4)cccc23)CC1 [Compound H-15, 4-[5-(4-Methyl-benzoylamino)-naphthalene-1-sulfonylamino]-piperidine-1-carboxylic acid ethyl ester] | 
16 | < 0.5 µM | CCOC(=O)N1CC[C@H](NS(=O)(=O)c2ccc(NC(=O)c3ncccc3C)c3ccccc23)[C@H](C)C1 (racemic) [Compound D-7, (±)-(cis)-3-Methyl-4-{4-[(3-methyl-pyridine-2-carbonyl)-amino]-naphthalene-1-sulfonylamino}-piperidine-1-carboxylic acid ethyl ester] | 
17 | < 0.5 µM | O=C(Nc1ccc(S(=O)(=O)NC2CCNCC2)c2ccccc12)c1ccccc1F [Compound C-99, 2-Fluoro-N-[4-(piperidin-4-ylsulfamoyl)-naphthalen-1-yl]-benzamide] | 
18 | < 0.5 µM | Cc1ccccc1C(=O)Nc1ccc(S(=O)(=O)N[C@H]2CCNC[C@H]2CC(C)C)c2ccccc12 [Compound J-52] | 

Row | Ki [1] | SMILES | Ki [2]
19 | < 1 µM | CCOC(=O)N1CCC(NS(=O)(=O)c2cc3c(c(NC(=O)c4ccccc4C)c2)CCCC3)CC1 [Compound H-59, 4-[4-(2-Methyl-benzoylamino)-5,6,7,8-tetrahydro-naphthalene-2-sulfonylamino]-piperidine-1-carboxylic acid ethyl ester] | 
20 | < 1 µM | CC(C)(C)OC(=O)N1CCC(NS(=O)(=O)c2ccc(C(=O)NC3CCCCC3)c3ccccc23)CC1 [Compound F-1, 4-(4-Cyclohexylcarbamoyl-naphthalene-1-sulfonylamino)-piperidine-1-carboxylic acid tert-butyl ester] | 
21 | < 0.5 µM | CCOC(=O)N1CCC(NS(=O)(=O)c2cccc3c(CNCc4ccc(Cl)cc4)cccc23)CC1 [Compound H-45, 4-{5-[(4-Chloro-benzylamino)-methyl]-naphthalene-1-sulfonylamino}-piperidine-1-carboxylic acid ethyl ester] | 
22 | < 0.5 µM | CCOC(=O)N1CC[C@H](NS(=O)(=O)c2ccc(NC(=O)c3ccccc3C)c3ccccc23)[C@@H](C)C1 (racemic) [Compound C-17, (±)-trans-3-Methyl-4-[4-(2-methyl-benzoylamino)-naphthalene-1-sulfonylaminno]-piperidine-1-carboxylic acid ethyl ester] | 
23 | < 0.5 µM | Cc1ccccc1C(=O)Nc1ccc(S(=O)(=O)NC2CCN(C(=O)CN(C)C)CC2)c2c1CCCC2 [Compound E-17, N-{4-[1-(2-Dimethylandno-acetl)-piperidin-4-ylsulfamoyl]-5,6,7,8-tetrahydro-naphthalen-1-yl}-2-methyl-benzamide] | 
24 | < 0.5 µM | Cc1ccccc1C(=O)Nc1ccc(S(=O)(=O)NC2CCCN(C(=O)N(C)C)C2)c2c1CCCC2 (racemic) [Compound E-30, (±)-3-[4-(2-Methyl-benzoylamino)-5,6,7,8-tetrahydro-naphthalene-1-sulfonylamino]-piperidine-1-carboxylic acid dimethylamide] | 
25 | < 0.5 µM | CCOC(=O)N1CCC(NS(=O)(=O)c2cccc3c(C(=O)Nc4cccc(C)c4C)cccc23)CC1 [Compound H-36, 4-[5-(2,3-Dimethyl-phenylcarbamoyl)-naphthalene-1-sulfonylamno]-piperidine-1-carboxylic acid ethyl ester] | 
26 | < 0.5 µM | CCOC(=O)N1CCC(NS(=O)(=O)c2ccc(CNCC3CCCCC3)c3ccccc23)CC1 [Compound G-27, 4-{4-[(Cyclohexylmethyl-amino)-methyl]-naphthalene-1-sulfonylamino}-piperidine-1-carboxylic acid ethyl ester] | 
27 | < 0.5 µM | CCOC(=O)N1CCC(NS(=O)(=O)c2ccc(NC(=O)c3cccnc3C)c3ccccc23)CC1 [Compound B-24] | 
28 | < 1 µM | Cc1ccccc1C(=O)Nc1ccc(S(=O)(=O)N[C@@H]2CCN(C(=O)CN3CCOCC3)C[C@@H]2C)c2ccccc12 (racemic) [Compound C-145, (±)-2-Methyl-N-{4-[3-cis-methyl-1-(2-morpholin-4-yl-acetyl)-piperidin-4-ylsulfamoyl]-naphthalen-1-yl}-benzamide] | 
29 | < 30 µM | COc1ccc(NS(=O)(=O)c2ccc(NC(=O)c3ccccc3OC)c3ccccc23)cc1 [Compound B-6, 2-Methoxy-N-[4-(4-methoxy-phenylsulfamoyl)-naphthalen-1-yl]-benzamide] | 
30 | < 30 µM | CCCC(=O)N1CCC(NS(=O)(=O)c2ccc(NC(=O)C3CCN(C)CC3)c3ccccc23)CC1 [Compound D-24, 1-Methyl-piperidine-4-carboxylic acid [4-(1-butyryl-piperidin-4-ylsulfamoyl)-naphthalen-1-yl]-amide] | 
31 | < 0.5 µM | Cc1ccccc1C(=O)Nc1ccc(S(=O)(=O)NC2CCN(C(=O)C(C)C)CC2)c2c1CCCC2 [Compound E-12, N-[4-(1-Isobutyryl-piperidin-4-ylsulfamoyl)-5,6,7,8-tetrahydro-naphthalen-1-yl]-2-methyl-benzamide] | 
32 | < 0.5 µM | Cc1ccccc1C(=O)Nc1ccc(S(=O)(=O)N[C@H]2CCN(C(=O)[C@@H](C)N)C[C@H]2C)c2ccccc12 [Compound J-6, (3R, 4S)-N-{4-[1-(2-(R)-Amno-propionyl)-3-methyl-piperidin-4-ylsulfamoyl]-naphthalen-1-yl}-2-methyl-benzamide] | 
33 | < 0.5 µM | O=C(Nc1ccc(S(=O)(=O)NC2CCCCC2)c2c1CCCC2)C1CCCCC1 [Compound E-5, Cyclohexanecarboxylic acid (4-cyclohexylsuffamoyl-5,6,7,8-tetrahydro-naphthalen-1-yl)-amide] | 
34 |  | COCC(=O)N1CCC(NS(=O)(=O)c2ccc(NC(=O)c3ccccc3C)c3ccccc23)CC1 [Compound C-56, N{4-[1-(2-Methoxy-acetyl)-piperidin-4-ylsulfamoyl]-naphthalen-1-yl}-2-methyl-benzamide] | < 0.5 µM
35 | < 5 µM | Cc1ccccc1C(=O)Nc1ccc(S(=O)(=O)N[C@@H]2CCNC[C@H]2C)c2ccccc12 [Compound J-54] | 
